Data from patent US20070122400A1, “Composition having liver function protecting effect” (priority 2003, published 2007).

What was measured:
[1] = rats, daily dosage of 1,200 mg/kg continuously for 52 weeks; cited from earlier work
[2] = system: liver dysfunction model using carbon tetrachloride; assay: liver dysfunction model using carbon tetrachloride, plasma GPT activity; assay type: in vivo, male SD rats; conditions: rats; for GPT activity in the plasma sample, relative to the control group: 100 mg/kg oral in soy oil about 17 h before 50% carbon tetrachloride 2.0 ml/kg i.p., plasma 24 hours after carbon tetrachloride, n=4; for GPT activity in the plasma, rank among the groups: 100 mg/kg oral, 24 hours after carbon tetrachloride, same tendency at 48 hours and 72 hours, control group highest
Procedure: The effects of coenzyme Q10 on protecting liver functions from disorders and preventing liver dysfunctions were examined by establishing a liver dysfunction model using carbon tetrachloride. A soy oil solution of oxidized coenzyme Q10 or reduced coenzyme Q10 with approximately 2% of oxidized coenzyme Q10 was orally administered to male SD rats (6 weeks old) at a dosage of 100 mg/kg. About 16 hours after the administration, blood was collected from the jugular vein using heparin as an anticoagulant. After one hour, 50% carbon tetrachloride (product of Nacalai Tesque, Inc.)/olive oil (product of Wako Pure Chemical Industries, Ltd.) was intraperitoneally administered at a dosage of 2.0 ml/kg. Blood was collected 24 hours, 48 hours, and 72 hours after the administration of carbon tetrachloride. The collected blood samples were centrifuged to obtain plasma samples. The GPT activity of each plasma sample was measured using a kit, Transaminase CII-Test Wako (product of Wako Pure Chemical Industries, Ltd.).

[3] = system: Liver dysfunction induced by carbon tetrachloride; conditions: rats, intraperitoneal administration; cited from earlier work

SMILES	toxic effects in chronic toxicity test [1]	GPT activity in the plasma sample, relative to the control group [2]	GPT activity in the plasma, rank among the groups [2]	liver dysfunction induced by carbon tetrachloride [3]
COC1=C(OC)C(=O)C(C/C=C(\C)CC/C=C(\C)CC/C=C(\C)CC/C=C(\C)CC/C=C(\C)CC/C=C(\C)CC/C=C(\C)CC/C=C(\C)CC/C=C(\C)CCC=C(C)C)=C(C)C1=O [Coenzyme Q10]	no toxic effects			
COC1=C(OC)C(=O)C(C/C=C(\C)CC/C=C(\C)CC/C=C(\C)CC/C=C(\C)CC/C=C(\C)CC/C=C(\C)CC/C=C(\C)CC/C=C(\C)CC/C=C(\C)CCC=C(C)C)=C(C)C1=O [oxidized coenzyme Q10]		about 60 % of the control group	the next highest	suppressed
COc1c(O)c(C)c(C/C=C(\C)CC/C=C(\C)CC/C=C(\C)CC/C=C(\C)CC/C=C(\C)CC/C=C(\C)CC/C=C(\C)CC/C=C(\C)CC/C=C(\C)CCC=C(C)C)c(O)c1OC [reduced coenzyme Q10]		about 25 % of the control group	the lowest	
